≈ marks a conversion by molar mass, not a printed value.
Legend:
[1] = test system: Propionibacterium acnes ATCC 6919; assay: Minimum inhibitory concentration (MIC) assay, Propionibacterium acnes ATCC 6919; assay type: cell-based; details: Cutibacterium acnes, ATCC6919; anaerobic culture 35+/-2°C, 48 hours; read with naked eyes
Description: On the day of the experiment, the compound in the flask was dissolved in 100% DMSO until the concentration of mother liquor was 0.4 mg/mL. If the mother liquor was not used on the same day, it was stored at −80° C. for future use. The compound mother liquor and standard antibiotics were subjected to 2-fold gradient dilution with corresponding solvents on a 96-microwell plate (V-bottom) to obtain 100× working solutions (Well 1 to Well 7) in sequence. Among them, the concentrations of the compound were 400 μg/mL, 200 μg/mL, 100 μg/mL, 50 μg/mL, 25 μg/mL, 12.5 μg/mL, 6.25 μg/mL, and 3.125 μg/mL. 100% DMSO was used as growth control (Well 8). As such, the compound motherplate was obtained. Two days before the experiment, anaerobic bacteria (Propionibacterium acnes) stored in a cryogenic tube at −80° C. were scribed on an MBA (Brucella Agar+5% (v/v) defibrillated sheep blood+[…] Hemin+1 μg/mLVitamin K1) plate. The anaerobic bacteria were placed in a 35+/−2° C. anaerobic incubator for 42-48 hours of cultivation. On the day of the experiment, the plate was taken out, clones were picked from the plate and suspended in physiological saline. Then, the turbidity of the bacterial suspension (containing 1.0-2.0×10^8 CFU/mL) was adjusted to OD600=0.2 by a turbidity meter. Then, the adjusted bacterial suspension was diluted to an appropriate concentration with the assay culture medium: about 5×10^5 CFU/mL for aerobic bacteria, and about 1×10^6 CFU/mL for anaerobic bacteria. As such, the inoculating solution was obtained. […] Therefore, the final assay concentrations of the compound were 4 μg/mL, 2 μg/mL, 1 μg/mL, 0.5 μg/mL, 0.25 μg/mL, 0.125 μg/mL, 0.06 μg/mL and 0.03 μg/mL. The total volume of each well on the assay plate was 200 μL: containing 1% DMSO, about 5×10^5 CFU/mL of aerobic bacteria and about 1×10^6 CFU/mL of anaerobic bacteria. All assay plates for aerobic bacteria were aerobically cultured at 35+/−2° C. for 16 to 20 hours, and all assay plates for anaerobic bacteria were anaerobically cultured in an anaerobic incubator at 35+/−2° C. for 48 hours. Note: for anaerobic bacteria, both the preparation of bacterial solution in step 2 and the inoculation of bacterial solution in step 3 were operated in an anaerobic workstation.

[2] = test system: acne model mice (Propionibacterium acnes ATCC 6919 injected into the left ear); assay: Acne model in mice: auricular thickness, redness and swelling of the left ear; assay type: in vivo, Balb/C mice
Description: Experimental strain: Propionibacterium acnes ATCC 6919 (Beijing Biobw Biotechnology Co., Ltd.) Experimental animals: Balb/C mice (Zhejiang Vital River Laboratory Animal Technology Co., Ltd.) Balb/C mice were grouped and numbered, and adaptively fed for one week. On the day of modeling, Propionibacterium acnes was taken, and OD600 was measured using a microplate reader. BH1 culture medium was diluted to OD600=1 (about 5×10^8 CFU/mL), centrifuged to discard supernatant, and the remaining culture was diluted to 1×10^8 CFU/mL with PBS. Once the molding began, the mice were anesthetized with a small animal anesthesia machine, the air flow and isoflurane content of the anesthesia machine were adjusted, and the mice were placed in an anesthesia induction chamber for anesthesia induction. After there were no obvious signs of activity, the mice were taken out and their toes were clamped with tweezers or hemostatic forceps for toe pinching reaction testing, if there was no retraction pain response, the surgery could be performed. The anesthetized mice were placed on a mice plate and fixed, the air flow or isoflurane content was adjusted to maintain anesthesia (isoflurane anesthesia induction content of 3% to 4%, anesthesia maintenance content of 1% to 2%, and air flow rate of 300 mL/min to 500 mL/min). Blank control group: 20 μL of PBS was intracutaneously injected into the left ear of each mouse. Model group, drug group to be tested: 20 μL suspension of Propionibacterium acnes in PBS was intracutaneously injected into the left ear of each mouse. After the injection of Propionibacterium acnes, the mice in each group were administered according to the methods of administration and dosages described in Table 5 at 4 hours, 20 hours, 28 hours, and 44 hours. […] The drugs to be tested included Compound 6, Compound 7, and Compound 12, all of which were in a form of hydrochloride. In this experiment, Compound 6, Compound 7, and Compound 12 all referred to the corresponding hydrochloride drugs with a solvent of 40% DMSO+60% glycerol, the drugs were added into DMSO, heated to 100° C. in a water bath, and then glycerol was added thereto to obtain a bright yellow viscous solution. Administration area: Propionibacterium acnes was injected into the left ear. Administration time: the drugs were administrated at 4 hours, 20 hours, 28 hours, and 44 hours post-injection of Propionibacterium acnes, a total of 4 times. Balb/C mice were anesthetized with a small animal anesthesia machine and isoflurane in Compound 6 group, Compound 7 group, Compound 12 group, and model group. […] Auricular thickness measurement: after Propionibacterium acnes was injected for 48 hours, the auricular thicknesses of mice were measured with a vernier caliper.

Structure (SMILES): CN(C)c1cc2c(cn1)-c1ccc3c(=O)c(C(=O)O)cn(C4CC4)c3c1COC2 [Compound 6]
- MIC [1]: 0.03 µg/mL (≈ 0.0766 µM)
- redness and swelling on the left ears of mice ([2]; Balb/C mice acne model, macroscopic, after treatment, drugs as hydrochloride, in words): reduced to varying degrees
- Auricular thickness (% of Blank) Mean ± SD ([2]; Balb/C mice, left ear, 48 hours after injection of Propionibacterium acnes, 15 μL applied at 4, 20, 28, 44 hours, drugs as hydrochloride): 112.71 ± 17.19 % of Blank
- Auricular thickness Mean ± SD ([2]; Balb/C mice, left ear, 48 hours after injection of Propionibacterium acnes, 15 μL applied at 4, 20, 28, 44 hours, drugs as hydrochloride in 40% DMSO+60% glycerol): 0.51 ± 0.08 mm
- auricular thicknesses of the left ears of mice after treatment ([2]; compared with acne model group, p<0.05, in words): significantly reduced
